“And” between values parts separate entries of the source, which are not always exact repeats. Equal values may be shown once. The source made the active and inactive calls. The calls are words filed in the database; no cut-off is given here.
Tests used:
[1] = target: Cyclin-dependent kinase-like 5 (Homo sapiens) (UniProt O76039); assay: Inhibition of human CDKL5 assessed as percent of control at 2000 nM by KINOMEscan assay relative to control; set-up: scale not given: the % may be the effect or the level left
[2] = target: Vascular endothelial growth factor receptor 3 (Homo sapiens) (UniProt P35916); assay: Inhibition of human FLT4 assessed as percent of control at 2000 nM by KINOMEscan assay relative to control; set-up: scale not given: the % may be the effect or the level left
[3] = target: Tyrosine-protein kinase ABL1 (Homo sapiens) (UniProt P00519); assay: Inhibition of phosphorylated human ABL1 assessed as percent of control at 2000 nM by KINOMEscan assay relative to control; set-up: scale not given: the % may be the effect or the level left
Sequence of Tyrosine-protein kinase ABL1 (Homo sapiens) (P00519 whole entry): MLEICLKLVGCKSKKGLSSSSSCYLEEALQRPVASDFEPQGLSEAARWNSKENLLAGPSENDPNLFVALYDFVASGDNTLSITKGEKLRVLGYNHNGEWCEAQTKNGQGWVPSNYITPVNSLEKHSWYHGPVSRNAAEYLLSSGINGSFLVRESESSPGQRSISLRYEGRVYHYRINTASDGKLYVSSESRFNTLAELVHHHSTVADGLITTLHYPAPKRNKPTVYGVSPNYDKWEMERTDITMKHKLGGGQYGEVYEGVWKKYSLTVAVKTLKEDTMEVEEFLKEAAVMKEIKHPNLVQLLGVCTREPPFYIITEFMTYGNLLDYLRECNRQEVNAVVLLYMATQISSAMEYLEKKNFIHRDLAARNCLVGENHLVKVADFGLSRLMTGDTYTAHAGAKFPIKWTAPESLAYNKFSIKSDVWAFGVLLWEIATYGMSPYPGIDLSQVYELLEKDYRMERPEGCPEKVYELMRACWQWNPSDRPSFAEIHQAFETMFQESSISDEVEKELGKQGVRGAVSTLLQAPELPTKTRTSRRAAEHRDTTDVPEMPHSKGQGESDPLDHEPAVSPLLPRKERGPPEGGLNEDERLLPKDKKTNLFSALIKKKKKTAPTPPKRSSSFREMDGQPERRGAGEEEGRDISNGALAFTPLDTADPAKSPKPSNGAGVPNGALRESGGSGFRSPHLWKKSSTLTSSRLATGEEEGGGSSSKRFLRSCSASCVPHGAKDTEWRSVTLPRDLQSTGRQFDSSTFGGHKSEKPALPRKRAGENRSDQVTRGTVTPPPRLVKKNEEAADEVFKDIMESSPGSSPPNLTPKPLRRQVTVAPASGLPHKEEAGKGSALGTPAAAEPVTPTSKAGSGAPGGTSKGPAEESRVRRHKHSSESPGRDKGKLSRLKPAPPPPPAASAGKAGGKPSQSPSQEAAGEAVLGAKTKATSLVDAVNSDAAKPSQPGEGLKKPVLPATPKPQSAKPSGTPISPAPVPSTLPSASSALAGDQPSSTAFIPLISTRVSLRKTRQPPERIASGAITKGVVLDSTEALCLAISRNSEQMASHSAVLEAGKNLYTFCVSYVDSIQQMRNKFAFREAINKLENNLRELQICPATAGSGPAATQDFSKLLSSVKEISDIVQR

[4] = target: Dual specificity protein kinase CLK4 (Homo sapiens) (UniProt Q9HAZ1); assay: Inhibition of human CLK4 assessed as percent of control at 2000 nM by KINOMEscan assay relative to control; set-up: scale not given: the % may be the effect or the level left
[5] = target: Citron Rho-interacting kinase (Homo sapiens) (UniProt O14578); assay: Inhibition of human CIT assessed as percent of control at 2000 nM by KINOMEscan assay relative to control; set-up: scale not given: the % may be the effect or the level left
[6] = target: Casein kinase I isoform alpha-like (Homo sapiens) (UniProt Q8N752); assay: Inhibition of human CSNK1A1L assessed as percent of control at 2000 nM by KINOMEscan assay relative to control; set-up: scale not given: the % may be the effect or the level left
[7] = target: BMP-2-inducible protein kinase (Homo sapiens) (UniProt Q9NSY1); assay: Inhibition of human BIKE assessed as percent of control at 2000 nM by KINOMEscan assay relative to control; set-up: scale not given: the % may be the effect or the level left
[8] = target: Inhibitor of nuclear factor kappa-B kinase subunit beta (Homo sapiens) (UniProt O14920); assay: Inhibition of human IKK-beta assessed as percent of control at 2000 nM by KINOMEscan assay relative to control; set-up: scale not given: the % may be the effect or the level left
[9] = target: Ephrin type-A receptor 2 (Homo sapiens) (UniProt P29317); assay: Inhibition of human EPHA2 assessed as percent of control at 2000 nM by KINOMEscan assay relative to control; set-up: scale not given: the % may be the effect or the level left
[10] = target: cAMP-dependent protein kinase catalytic subunit PRKX (Homo sapiens) (UniProt P51817); assay: Inhibition of human PRKX assessed as percent of control at 2000 nM by KINOMEscan assay relative to control; set-up: scale not given: the % may be the effect or the level left
Sequence of cAMP-dependent protein kinase catalytic subunit PRKX (Homo sapiens) (P51817 whole entry): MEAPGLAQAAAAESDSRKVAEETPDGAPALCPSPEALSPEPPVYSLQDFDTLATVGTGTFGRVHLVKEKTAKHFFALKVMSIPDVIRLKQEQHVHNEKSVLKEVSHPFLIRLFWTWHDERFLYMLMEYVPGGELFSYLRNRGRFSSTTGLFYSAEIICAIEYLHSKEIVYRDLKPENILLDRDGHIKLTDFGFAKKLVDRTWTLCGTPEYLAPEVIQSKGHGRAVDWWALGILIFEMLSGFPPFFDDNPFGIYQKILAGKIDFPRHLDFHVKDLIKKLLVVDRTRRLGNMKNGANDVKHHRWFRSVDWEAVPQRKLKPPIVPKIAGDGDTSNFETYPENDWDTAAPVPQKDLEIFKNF

CWR22R = assay: Antitumor activity against human 22Rv1 cells expressing AR-V7 xenografted in male nude mouse assessed as suppression of tumor growth at 25 mg/kg, administered twice a day for 40 days; format: functional, organism-based
[11] = target: Serine/threonine-protein kinase 26 (Homo sapiens) (UniProt Q9P289); assay: Inhibition of human MST4 assessed as percent of control at 2000 nM by KINOMEscan assay relative to control; set-up: scale not given: the % may be the effect or the level left
Sequence of Serine/threonine-protein kinase 26 (Homo sapiens) (Q9P289 2-416 limits assumed): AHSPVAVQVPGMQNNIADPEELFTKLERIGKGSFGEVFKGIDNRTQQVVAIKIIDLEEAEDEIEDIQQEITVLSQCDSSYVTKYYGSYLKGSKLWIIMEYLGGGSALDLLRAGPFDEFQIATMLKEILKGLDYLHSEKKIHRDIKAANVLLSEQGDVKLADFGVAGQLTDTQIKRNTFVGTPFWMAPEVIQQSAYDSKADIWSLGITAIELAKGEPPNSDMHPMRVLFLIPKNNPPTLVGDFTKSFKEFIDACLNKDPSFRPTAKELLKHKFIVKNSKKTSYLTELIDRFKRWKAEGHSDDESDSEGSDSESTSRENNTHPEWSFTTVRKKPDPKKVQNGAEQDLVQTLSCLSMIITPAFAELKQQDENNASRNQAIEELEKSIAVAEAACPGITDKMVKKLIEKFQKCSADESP

[12] = target: Peripheral plasma membrane protein CASK (Homo sapiens) (UniProt O14936); assay: Inhibition of human CASK assessed as percent of control at 2000 nM by KINOMEscan assay relative to control; set-up: scale not given: the % may be the effect or the level left
Sequence of Peripheral plasma membrane protein CASK (Homo sapiens) (O14936 whole entry): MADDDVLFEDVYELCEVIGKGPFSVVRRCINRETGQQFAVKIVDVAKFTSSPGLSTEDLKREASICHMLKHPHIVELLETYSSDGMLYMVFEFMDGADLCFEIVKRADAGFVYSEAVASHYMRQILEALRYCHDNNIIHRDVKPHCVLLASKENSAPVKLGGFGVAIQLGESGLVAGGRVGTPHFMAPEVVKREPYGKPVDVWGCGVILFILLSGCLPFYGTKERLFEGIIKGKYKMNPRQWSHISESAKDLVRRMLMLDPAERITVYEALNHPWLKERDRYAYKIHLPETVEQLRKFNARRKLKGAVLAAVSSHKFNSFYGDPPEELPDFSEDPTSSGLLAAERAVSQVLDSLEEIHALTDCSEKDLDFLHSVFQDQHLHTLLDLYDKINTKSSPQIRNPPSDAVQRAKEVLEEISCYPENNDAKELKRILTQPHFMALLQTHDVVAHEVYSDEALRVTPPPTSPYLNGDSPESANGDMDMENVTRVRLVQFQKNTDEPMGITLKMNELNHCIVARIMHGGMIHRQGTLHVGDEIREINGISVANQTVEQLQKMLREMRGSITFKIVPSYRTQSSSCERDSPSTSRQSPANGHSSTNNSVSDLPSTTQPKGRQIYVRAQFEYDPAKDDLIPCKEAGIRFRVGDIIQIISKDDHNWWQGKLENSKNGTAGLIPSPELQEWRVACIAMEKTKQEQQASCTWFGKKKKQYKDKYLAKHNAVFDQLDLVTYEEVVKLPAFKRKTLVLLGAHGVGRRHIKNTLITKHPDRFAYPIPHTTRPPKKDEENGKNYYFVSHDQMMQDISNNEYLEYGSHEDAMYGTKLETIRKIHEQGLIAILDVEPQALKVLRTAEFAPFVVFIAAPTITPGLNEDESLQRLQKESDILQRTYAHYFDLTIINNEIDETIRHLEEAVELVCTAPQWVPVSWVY

[13] = target: Megakaryocyte-associated tyrosine-protein kinase (Homo sapiens) (UniProt P42679); assay: Inhibition of human CTK assessed as percent of control at 2000 nM by KINOMEscan assay relative to control; set-up: scale not given: the % may be the effect or the level left
[14] = target: Tyrosine-protein kinase Fes/Fps (Homo sapiens) (UniProt P07332); assay: Inhibition of human FES assessed as percent of control at 2000 nM by KINOMEscan assay relative to control; set-up: scale not given: the % may be the effect or the level left
[15] = tested on: Epidermal growth factor receptor (Homo sapiens), P00533 [T790M]; assay: Inhibition of human EGFR T790M mutant assessed as percent of control at 2000 nM by KINOMEscan assay relative to control; set-up: scale not given: the % may be the effect or the level left
[16] = target: Cyclin-dependent kinase 4/cyclin D1 (Homo sapiens) (UniProt P11802+P24385); assay: Inhibition of human CDK4/cyclin D1 assessed as percent of control at 2000 nM by KINOMEscan assay relative to control; format: protein-complex assay; set-up: scale not given: the % may be the effect or the level left
[17] = target: Ephrin type-B receptor 1 (Homo sapiens) (UniProt P54762); assay: Inhibition of human EPHB1 assessed as percent of control at 2000 nM by KINOMEscan assay relative to control; set-up: scale not given: the % may be the effect or the level left
[18] = target: Serine/threonine-protein kinase MRCK beta (Homo sapiens) (UniProt Q9Y5S2); assay: Inhibition of human MRCKB assessed as percent of control at 2000 nM by KINOMEscan assay relative to control; set-up: scale not given: the % may be the effect or the level left
[19] = target: Myosin light chain kinase 2, skeletal/cardiac muscle (Homo sapiens) (UniProt Q9H1R3); assay: Inhibition of human MYLK2 assessed as percent of control at 2000 nM by KINOMEscan assay relative to control; set-up: scale not given: the % may be the effect or the level left
[20] = target: MAP kinase-activated protein kinase 2 (Homo sapiens) (UniProt P49137); assay: Inhibition of human MAPKAPK2 assessed as percent of control at 2000 nM by KINOMEscan assay relative to control; set-up: scale not given: the % may be the effect or the level left
Sequence of MAP kinase-activated protein kinase 2 (Homo sapiens) (P49137 whole entry, looked up): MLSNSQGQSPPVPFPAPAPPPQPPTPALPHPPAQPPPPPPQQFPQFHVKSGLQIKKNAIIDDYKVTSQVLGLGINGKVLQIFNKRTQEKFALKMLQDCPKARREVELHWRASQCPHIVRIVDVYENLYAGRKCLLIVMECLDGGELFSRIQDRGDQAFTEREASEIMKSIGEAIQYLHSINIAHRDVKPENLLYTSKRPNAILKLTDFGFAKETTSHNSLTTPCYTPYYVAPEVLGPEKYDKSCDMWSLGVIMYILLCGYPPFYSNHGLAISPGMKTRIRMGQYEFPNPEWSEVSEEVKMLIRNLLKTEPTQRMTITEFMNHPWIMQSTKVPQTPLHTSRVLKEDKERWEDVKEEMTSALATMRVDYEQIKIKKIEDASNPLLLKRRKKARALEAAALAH

[21] = target: Phosphatidylinositol 5-phosphate 4-kinase type-2 gamma (Homo sapiens) (UniProt Q8TBX8); assay: Inhibition of human PIP5K2C assessed as percent of control at 2000 nM by KINOMEscan assay relative to control; set-up: scale not given: the % may be the effect or the level left
[22] = target: Serine/threonine-protein kinase NLK (Homo sapiens) (UniProt Q9UBE8); assay: Inhibition of human NLK assessed as percent of control at 2000 nM by KINOMEscan assay relative to control; set-up: scale not given: the % may be the effect or the level left
[23] = target: Activated CDC42 kinase 1 (Homo sapiens) (UniProt Q07912); assay: Inhibition of human TNK2 assessed as percent of control at 2000 nM by KINOMEscan assay relative to control; set-up: scale not given: the % may be the effect or the level left
[24] = target: NUAK family SNF1-like kinase 1 (Homo sapiens) (UniProt O60285); assay: Inhibition of human ARK5 assessed as percent of control at 2000 nM by KINOMEscan assay relative to control; set-up: scale not given: the % may be the effect or the level left
[25] = target: Mitogen-activated protein kinase kinase kinase 4 (Homo sapiens) (UniProt Q9Y6R4); assay: Inhibition of human MAP3K4 assessed as percent of control at 2000 nM by KINOMEscan assay relative to control; set-up: scale not given: the % may be the effect or the level left
Sequence of Mitogen-activated protein kinase kinase kinase 4 (Homo sapiens) (Q9Y6R4 whole entry): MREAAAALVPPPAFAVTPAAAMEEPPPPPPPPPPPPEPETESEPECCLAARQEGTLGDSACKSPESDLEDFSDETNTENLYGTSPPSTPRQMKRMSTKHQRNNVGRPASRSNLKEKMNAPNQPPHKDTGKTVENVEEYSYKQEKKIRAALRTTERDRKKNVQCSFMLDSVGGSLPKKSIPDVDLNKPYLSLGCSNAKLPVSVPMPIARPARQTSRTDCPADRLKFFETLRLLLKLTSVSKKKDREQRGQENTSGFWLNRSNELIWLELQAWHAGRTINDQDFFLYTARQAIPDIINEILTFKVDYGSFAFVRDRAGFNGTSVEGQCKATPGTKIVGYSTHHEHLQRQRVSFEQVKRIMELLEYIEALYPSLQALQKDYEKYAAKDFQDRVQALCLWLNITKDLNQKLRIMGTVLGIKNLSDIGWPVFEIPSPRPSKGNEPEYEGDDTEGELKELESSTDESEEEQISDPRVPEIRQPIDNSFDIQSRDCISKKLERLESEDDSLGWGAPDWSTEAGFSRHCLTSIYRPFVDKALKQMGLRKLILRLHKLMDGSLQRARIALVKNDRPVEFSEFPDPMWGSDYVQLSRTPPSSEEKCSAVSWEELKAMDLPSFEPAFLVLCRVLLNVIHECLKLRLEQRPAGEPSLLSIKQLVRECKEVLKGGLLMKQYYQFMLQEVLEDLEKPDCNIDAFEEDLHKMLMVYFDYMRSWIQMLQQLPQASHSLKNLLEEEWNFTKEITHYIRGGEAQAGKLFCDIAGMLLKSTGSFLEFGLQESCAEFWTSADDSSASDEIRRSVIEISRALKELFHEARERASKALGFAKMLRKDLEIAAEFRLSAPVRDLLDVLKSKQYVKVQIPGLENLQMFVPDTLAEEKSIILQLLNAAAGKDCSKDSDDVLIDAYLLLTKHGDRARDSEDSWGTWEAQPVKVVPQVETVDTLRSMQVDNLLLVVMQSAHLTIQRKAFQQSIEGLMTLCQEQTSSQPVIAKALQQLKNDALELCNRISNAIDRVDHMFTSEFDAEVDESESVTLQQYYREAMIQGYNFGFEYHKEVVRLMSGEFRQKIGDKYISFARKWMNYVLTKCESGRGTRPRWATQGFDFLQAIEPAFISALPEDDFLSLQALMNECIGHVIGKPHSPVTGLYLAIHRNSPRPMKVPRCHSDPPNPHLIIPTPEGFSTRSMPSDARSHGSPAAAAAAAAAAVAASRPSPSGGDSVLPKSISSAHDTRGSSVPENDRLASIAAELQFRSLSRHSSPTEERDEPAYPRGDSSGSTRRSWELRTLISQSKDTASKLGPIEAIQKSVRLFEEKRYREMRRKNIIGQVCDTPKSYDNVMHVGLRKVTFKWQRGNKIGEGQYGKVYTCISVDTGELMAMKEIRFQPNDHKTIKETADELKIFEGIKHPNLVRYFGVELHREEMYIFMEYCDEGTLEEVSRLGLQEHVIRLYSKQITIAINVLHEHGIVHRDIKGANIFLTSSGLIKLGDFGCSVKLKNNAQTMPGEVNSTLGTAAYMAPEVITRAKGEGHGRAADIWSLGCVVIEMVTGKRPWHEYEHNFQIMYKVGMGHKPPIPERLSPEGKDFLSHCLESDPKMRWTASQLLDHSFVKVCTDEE

[26] = target: MAP kinase-interacting serine/threonine-protein kinase 1 (Homo sapiens) (UniProt Q9BUB5); assay: Inhibition of human MKNK1 assessed as percent of control at 2000 nM by KINOMEscan assay relative to control; set-up: scale not given: the % may be the effect or the level left
[27] = target: Platelet-derived growth factor receptor alpha (Homo sapiens) (UniProt P16234); assay: Inhibition of human PDGFRA assessed as percent of control at 2000 nM by KINOMEscan assay relative to control; set-up: scale not given: the % may be the effect or the level left
[28] = target: Activin receptor type-2A (Homo sapiens) (UniProt P27037); assay: Inhibition of human ACVR2A assessed as percent of control at 2000 nM by KINOMEscan assay relative to control; set-up: scale not given: the % may be the effect or the level left
[29] = target: Ephrin type-A receptor 3 (Homo sapiens) (UniProt P29320); assay: Inhibition of human EPHA3 assessed as percent of control at 2000 nM by KINOMEscan assay relative to control; set-up: scale not given: the % may be the effect or the level left
[30] = target: Tyrosine-protein kinase receptor UFO (Homo sapiens) (UniProt P30530); assay: Inhibition of human AXL assessed as percent of control at 2000 nM by KINOMEscan assay relative to control; set-up: scale not given: the % may be the effect or the level left

`CN(C)C(=O)c1ccc(N2CCCN(c3ccnc4sc(C(N)=O)c(N)c34)CC2)cc1` was tested, and the Activity [1] was 100% and 84%, the Activity [2] was 92% and 98% and the Activity [3] was 90% and 77%. For the same compound, the Activity [4] was 59% and 66%, the Activity [5] was 51% and 65% and the Activity [6] was 67%. For the same compound, the Activity ([6]; INHIBITOR) was 37%, the Activity [7] was 100% and 96% and the Activity [8] was 89% and 71%. The Activity [9] was 95% and 100%, the Activity [10] was 94% and 95% and the Activity (CWR22R) was “Active”. For the same compound, the Activity [11] was 95% and 89%, the Activity [12] was 71% and 96% and the Activity [13] was 92% and 100%. For the same compound, the Activity [14] was 100%, the Activity [15] was 98% and 87% and the Activity [16] was 94% and 96%. For the same compound, the Activity [17] was 88%, the Activity [18] was 96% and 100% and the Activity [19] was 100%. The Activity [20] was 91% and 99%, the Activity [21] was 80% and 64% and the Activity [22] was 98%. For the same compound, the Activity [23] was 100%, the Activity [24] was 57% and 77% and the Activity [25] was 90% and 100%. For the same compound, the Activity [26] was 94% and 79%, the Activity [27] was 70% and 65% and the Activity [28] was 95% and 92%. The Activity [29] was 100% and 87% and the Activity [30] was 99% and 96%.
